How the values were obtained:
[1] = Effect of food on oral absorption of GP1681
IP receptor (PTGIR) = biological target: T1, IP receptor (PTGIR) (Homo sapiens, UniProt P43119); experiment: PathHunter beta-arrestin cell-based prostanoid receptor assay, IP; details: Run 1, GP1681 starting concentration 4 uM; β-Arrestin; read-out: EC50
T1 construct: host or cells: PathHunter beta-arrestin cell line
Method: (§1) DiscoverX cell-based ligand binding assays were performed in the PathHunter beta-arrestin (EP1, EP2, EP3, EP4, FP, IP, and TP receptors) or cAMP Hunter™ (DP receptor) cell lines.
(§2) Receptor binding studies were performed in either the PathHunter® b-Arrestin (EP1, EP2, EP3, EP4, FP, IP, and TP receptors) or cAMP Hunter™ (DP receptor) cell lines. A 10 mM working stock of GP1681 was created in 1×PBS, pH 7.4. All assays were carried out in duplicate with 10 individual concentrations of GP1681. A three-fold dilution series of GP1681 was established for the initial or pilot experiment with a starting concentration of 4 uM (starting concentration was chosen based on previous Gemmus Pharma preclinical experimental results).
(§3) GP1681 was incubated with cells lines at either 37° C. or room temperature, for 90-180 minutes (temperatures and incubation times are all dependent on established optimized procedures for each receptor cell line) after which cell wells were processed and signal production detected. […] Vehicle only controls (PBS, pH 7.4) were also included for each receptor cell line. Receptor binding activity was analyzed using CBIS data analysis suite (ChemInnovation, CA). The percentage of activity was calculated using the following formula: % Activity=100%×(mean RLU of test sample−mean RLU of vehicle control)/(mean MAX control ligand−mean RLU of vehicle control). Dose curves were performed and EC50 values determined.

FP receptor (PTGFR) = biological target: T2, FP receptor (PTGFR) (Homo sapiens, UniProt P43088); experiment: PathHunter beta-arrestin cell-based prostanoid receptor assay, FP
T2 construct: host or cells: PathHunter beta-arrestin cell line
Method: as §1, §2
(§4) GP1681 was incubated with cells lines at either 37° C. or room temperature, for 90-180 minutes (temperatures and incubation times are all dependent on established optimized procedures for each receptor cell line) after which cell wells were processed and signal production detected. […] Receptor binding activity was analyzed using CBIS data analysis suite (ChemInnovation, CA). The percentage of activity was calculated using the following formula: % Activity=100%×(mean RLU of test sample−mean RLU of vehicle control)/(mean MAX control ligand−mean RLU of vehicle control). Dose curves were performed and EC50 values determined.

EP2 receptor (PTGER2) = biological target: T3, EP2 receptor (PTGER2) (Homo sapiens, UniProt P43116); experiment: PathHunter beta-arrestin cell-based prostanoid receptor assay, EP2
T3 construct: host or cells: PathHunter beta-arrestin cell line
Method: as §1, §2, §4

EP4 receptor (PTGER4) [2] = biological target: T4, EP4 receptor (PTGER4) (Homo sapiens, UniProt P35408); experiment: PathHunter β-Arrestin PTGER4 (EP4) agonist assay, optimisation of cell density and temperature; format: cell-based; details: for EC50: read-out: RC50 (μM) / EC50, agonist
T4 construct: expressed in transfected cells; host or cells: PathHunter β-Arrestin PTGER4 (EP4) cell line
Method: This Example describes antagonist assay experiments performed with known EP4 receptor inhibitors. Agonist controls and antagonist binding studies were performed in the PathHunter® β-Arrestin PTGER4 (EP4) cell lines. The PathHunter® β-Arrestin assay monitors activation by bound ligands of a GPCR in a homogenous, non-imaging assay format using Enzyme Fragment Complementation (EFC) with β-galactosidase (β-Gal) as the functional reporter. A fresh 10 mM working stock of GP1681 was created in the vehicle (1×PBS, pH 7.4). Prior to setting up the GP1681-antagonist assays, the parameters of the GP1681 agonist assay were optimized for most efficient cellular activation and expression of the reporter molecule via GP1681 receptor (PTGER4) binding. Two different cell densities (5K vs 7.5K) and incubation temperatures (room temperature and 37 C) were evaluated in standard agonist format. […] Vehicle only controls (1×PBS, pH 7.4) were also included for each receptor cell line. Receptor binding activity was analyzed using CBIS data analysis suite (ChemInnovation Software, Inc., San Diego, CA, USA).
The percentage of activity was calculated using the following formula: % Activity=100%×(mean RLU of test sample−mean RLU of vehicle control)/(mean MAX control ligand−mean RLU of vehicle control). Dose curves were performed and EC50 values determined. In all rows, the assay was Arrestin, the assay target was PTGER4, and the result type was EC50 for all agonists, and IC50 for all antagonists. NI indicates no inhibition, N is number of replicates, K is cell density, and RT is room temperature.

EP4 receptor (PTGER4) [3] = biological target: T4, EP4 receptor (PTGER4); experiment: PathHunter beta-arrestin cell-based prostanoid receptor assay, EP4; details: β-Arrestin
Method: as §1, §2
as §4, with “determined. […]” for “determined.”

DP1 receptor (PTGDR) = biological target: T5, DP1 receptor (PTGDR) (Homo sapiens, UniProt Q13258); experiment: cAMP Hunter cell-based prostanoid receptor assay, DP receptor; details: HitHunter cAMP cell line
T5 construct: host or cells: cAMP Hunter (DP receptor) cell line
T5 sequence (Q13258 1-359): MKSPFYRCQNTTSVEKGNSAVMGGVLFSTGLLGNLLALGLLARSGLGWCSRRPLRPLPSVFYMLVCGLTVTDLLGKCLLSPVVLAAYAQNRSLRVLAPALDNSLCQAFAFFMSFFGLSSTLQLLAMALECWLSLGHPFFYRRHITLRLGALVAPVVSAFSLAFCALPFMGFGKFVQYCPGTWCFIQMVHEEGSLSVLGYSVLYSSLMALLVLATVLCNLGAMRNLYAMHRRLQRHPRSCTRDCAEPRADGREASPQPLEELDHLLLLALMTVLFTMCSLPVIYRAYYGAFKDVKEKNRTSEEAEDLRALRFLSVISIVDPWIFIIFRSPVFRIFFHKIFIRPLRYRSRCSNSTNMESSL
Method: as §1, §2, §3
The four assays were repeated with a higher starting concentration.
The second experimental run of the receptor binding assay was performed with these last four cell lines including GP1681 and their respective positive and negative (vehicle, PBS pH 7.4) controls. A 10 mM GP1681 working stock was again created in 1×PBS, pH 7.4. A three-fold serial dilution scheme was again used for GP1681 samples, starting this time at a concentration of 500 μM. The remainder of the second experimental run was performed in the same manner as run 1.

[4] = Run 1, GP1681 starting concentration 4 uM, β-Arrestin
[5] = Run 1, GP1681 starting concentration 4 uM, curve for GP1681 not fully sigmoidal
[6] = Run 2, GP1681 starting concentration 500 μM

T4 sequence (P35408 whole entry): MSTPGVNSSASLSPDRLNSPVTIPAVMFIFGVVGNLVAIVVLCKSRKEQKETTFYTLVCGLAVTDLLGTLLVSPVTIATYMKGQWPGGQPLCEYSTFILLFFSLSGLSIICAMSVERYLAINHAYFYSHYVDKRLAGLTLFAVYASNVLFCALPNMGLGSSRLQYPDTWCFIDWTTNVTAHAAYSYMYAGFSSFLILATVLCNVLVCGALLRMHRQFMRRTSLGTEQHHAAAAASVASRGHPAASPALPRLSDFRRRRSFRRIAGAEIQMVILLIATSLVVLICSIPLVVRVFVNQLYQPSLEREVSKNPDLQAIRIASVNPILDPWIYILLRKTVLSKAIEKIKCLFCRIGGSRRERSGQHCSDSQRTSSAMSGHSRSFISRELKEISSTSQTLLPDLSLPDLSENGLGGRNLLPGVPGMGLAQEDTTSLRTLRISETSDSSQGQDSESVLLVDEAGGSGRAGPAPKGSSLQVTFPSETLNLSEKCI
T3 sequence (P43116 whole entry): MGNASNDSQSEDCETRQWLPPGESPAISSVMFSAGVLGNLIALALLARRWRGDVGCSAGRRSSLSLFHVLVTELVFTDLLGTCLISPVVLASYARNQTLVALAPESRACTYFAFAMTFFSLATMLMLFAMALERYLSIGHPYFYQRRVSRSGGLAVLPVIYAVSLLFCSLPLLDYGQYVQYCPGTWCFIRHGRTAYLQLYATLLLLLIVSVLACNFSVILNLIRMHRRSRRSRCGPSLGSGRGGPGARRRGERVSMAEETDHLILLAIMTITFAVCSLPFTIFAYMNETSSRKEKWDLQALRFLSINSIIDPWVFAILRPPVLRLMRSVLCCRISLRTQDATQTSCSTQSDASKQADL
T2 sequence (P43088 whole entry): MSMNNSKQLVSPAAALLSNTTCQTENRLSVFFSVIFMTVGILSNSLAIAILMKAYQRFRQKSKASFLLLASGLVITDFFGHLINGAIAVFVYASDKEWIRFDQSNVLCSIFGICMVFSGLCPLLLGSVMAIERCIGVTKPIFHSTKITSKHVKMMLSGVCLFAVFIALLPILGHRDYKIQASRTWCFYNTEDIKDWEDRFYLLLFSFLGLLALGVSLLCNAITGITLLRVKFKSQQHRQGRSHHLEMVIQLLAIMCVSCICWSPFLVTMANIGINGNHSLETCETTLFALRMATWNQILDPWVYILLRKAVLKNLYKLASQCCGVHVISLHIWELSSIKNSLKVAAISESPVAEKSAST
T1 sequence (P43119 whole entry): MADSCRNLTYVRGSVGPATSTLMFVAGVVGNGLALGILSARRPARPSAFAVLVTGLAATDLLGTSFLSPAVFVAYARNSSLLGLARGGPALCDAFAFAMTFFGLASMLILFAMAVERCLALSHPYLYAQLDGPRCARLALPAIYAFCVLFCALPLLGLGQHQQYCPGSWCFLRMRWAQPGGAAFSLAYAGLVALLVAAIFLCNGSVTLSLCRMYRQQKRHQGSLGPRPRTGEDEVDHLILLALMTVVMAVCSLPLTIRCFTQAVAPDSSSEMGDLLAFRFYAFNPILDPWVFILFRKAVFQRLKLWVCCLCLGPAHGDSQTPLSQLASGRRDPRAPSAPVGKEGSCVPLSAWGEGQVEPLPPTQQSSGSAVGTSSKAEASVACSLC

CC#CCC(C)C(O)C=CC1C(O)CC2Oc3c(CCCC(=O)O)cccc3C21 (single isomer, unassigned) [GP1681, esuberaprost]
effect of food on oral absorption [1]: positive effect | EC50 (IP receptor (PTGIR)): 0.11 µM | binding to FP receptor, in words (FP receptor (PTGFR)): does not bind | EC50 (FP receptor (PTGFR); [4]): > 4 µM | binding to EP2 receptor, in words (EP2 receptor (PTGER2)): does not bind | EC50 (EP2 receptor (PTGER2); [4]): > 4 µM | EC50 (EP4 receptor (PTGER4) [2]; 5K 37C, N not given): 11.9 µM | EC50 (EP4 receptor (PTGER4) [2]; N = 1, 5K 37C): 23.4 µM | EC50 (EP4 receptor (PTGER4) [2]; N = 1, 5K RT): 12.7 µM | EC50 (EP4 receptor (PTGER4) [2]; N = 1, 7.5K 37C): 22 µM | EC50 (EP4 receptor (PTGER4) [2]; N = 1, 7.5K RT): 14.8 µM | EC50 (EP4 receptor (PTGER4) [2]; N = 2, 5K 37C): 16.2 µM | EC50 (EP4 receptor (PTGER4) [2]; N = 2, 5K RT): 16.1 µM | EC50 (EP4 receptor (PTGER4) [2]; N = 2, 7.5K 37C): 18 µM | EC50 (EP4 receptor (PTGER4) [2]; N = 2, 7.5K RT): 11.1 µM | EC80 concentration (EP4 receptor (PTGER4) [2]; from GP1681 binding curves, used in the antagonist assays): 45 µM | EC50 (EP4 receptor (PTGER4) [3]; [5]): 1.74 µM | EC50 (EP4 receptor (PTGER4) [3]; [6]): 18.1 µM | EC50 (DP1 receptor (PTGDR); [5]): 1.35 µM | EC50 (DP1 receptor (PTGDR); [6]): 1.33 µM

Reference: patent US12042503B2, “Compositions and methods for treating coronavirus infections” (priority 2020, dated 2024)
